Assay results from the supplement of paper PMC10307832.

Experiments:
Assay in all cases: relative viability (nuclei count vs DMSO), 5 days (fraction); higher = more cells survive
[1] = compound: COc1nc(N)nc2c1ncn2[C@@H]1O[C@H](CO)[C@@H](O)[C@@H]1O [Nelarabine] + COc1cccc2cc(-c3nc([C@H]4CC[C@H](C(=O)O)CC4)n4ncnc(N)c34)[nH]c12 [OSI-027] (partner 0.5 µM)
How it was run: (§1)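 Values are medians from duplicate plates. Each reflects relative viability, defined as the nuclei count of treated wells over that of vehicle wells. Lung cancer cell lines in 1536-well plates were pin-tool dosed one day after seeding with one drug alone or with a fixed anchor-drug dose plus five library-drug doses (not always all listed) in √10 steps, then fixed, stained and imaged at 4× after 5 days.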

[2] = compound: C=CCn1c(=O)c2cnc(Nc3ccc(N4CCN(C)CC4)cc3)nc2n1-c1cccc(C(C)(C)O)n1 [Adavosertib] + Nc1ncn([C@H]2C[C@H](O)[C@@H](CO)O2)c(=O)n1 [Decitabine] (partner 2 µM)
How it was run: as §1

[3] = compound: C=CCn1c(=O)c2cnc(Nc3ccc(N4CCN(C)CC4)cc3)nc2n1-c1cccc(C(C)(C)O)n1 [Adavosertib] + C[C@@H](Oc1cc(-c2cnn(C3CCNCC3)c2)cnc1N)c1c(Cl)ccc(F)c1Cl [Crizotinib] (partner 1 µM)
How it was run: as §1

[4] = compound: C=CCn1c(=O)c2cnc(Nc3ccc(N4CCN(C)CC4)cc3)nc2n1-c1cccc(C(C)(C)O)n1 [Adavosertib] + COc1cccc2cc(-c3nc([C@H]4CC[C@H](C(=O)O)CC4)n4ncnc(N)c34)[nH]c12 [OSI-027] (partner 0.5 µM)
How it was run: as §1

Cell Line	relative viability ([1]; first compound 0.01 µM)	relative viability ([1]; first compound 0.03162 µM)	relative viability ([1]; first compound 0.1 µM)	relative viability ([1]; first compound 0.3162 µM)	relative viability ([1]; first compound 1 µM)	relative viability ([2]; first compound 0.01 µM)	relative viability ([2]; first compound 0.03162 µM)	relative viability ([2]; first compound 0.1 µM)	relative viability ([2]; first compound 0.3162 µM)	relative viability ([3]; first compound 0.01 µM)	relative viability ([3]; first compound 0.03162 µM)	relative viability ([3]; first compound 0.1 µM)	relative viability ([3]; first compound 0.3162 µM)	relative viability ([4]; first compound 0.01 µM)	relative viability ([4]; first compound 0.03162 µM)	relative viability ([4]; first compound 0.1 µM)	relative viability ([4]; first compound 0.3162 µM)
RERF-LC-KJ	0.654	0.524	0.505	0.59	0.627	0.669	0.718	0.775	0.714	0.795	0.815	0.94	0.925	0.561	0.512	0.555	0.465
LU99A	0.315	0.295	0.307	0.309	0.291	0.942	0.912	0.846	0.69	0.529	0.584	0.561	0.461	0.314	0.282	0.307	0.298
PC-14	1.41	0.97	0.936	1.22	1.05	0.249	0.226	0.259	0.101	0.91	1.02	1.02	0.646	0.916	0.835	0.846	0.114
NCI-H650	0.616	0.529	0.48	0.563	0.501	0.352	0.319	0.342	0.286	0.706	0.648	0.692	0.609	0.476	0.606	0.526	0.446
NCI-H1651	0.761	0.677	0.727	0.874	0.631	0.578	0.681	0.603	0.525	0.836	0.882	0.897	0.899	0.577	0.571	0.781	0.539
NCI-H2023	0.545	0.397	0.341	0.416	0.354	0.203	0.224	0.191	0.141	0.717	0.681	0.573	0.551	0.465	0.35	0.304	0.203
NCI-H2087	0.568	0.639	0.489	0.676	0.517	0.24	0.347	0.276	0.277	0.911	0.96	1.03	0.896	0.591	0.685	0.603	0.478
EKVX	0.797	0.661	0.652	0.729	0.685	0.329	0.388	0.383	0.4	1.13	0.952	0.776	1.06	0.729	0.77	0.679	0.651
NCI-H1975	0.791	0.55	0.87	0.834	0.876	0.37	0.412	0.439	0.399	0.962	0.952	0.904	0.625	0.733	0.644	0.606	0.493
NCI-H520	0.321	0.233	0.233	0.395	0.264	0.488	0.525	0.555	0.473	0.925	0.83	0.94	0.579	0.298	0.262	0.212	0.224
NCI-H647	0.481	0.683	0.68	0.68	0.571	0.432	0.455	0.456	0.322	1.2	1.08	0.967	0.593	0.635	0.609	0.569	0.26
NCI-H1755	0.647	0.642	0.699	0.835	0.781	0.717	0.689	0.775	0.725	0.885	0.882	0.911	0.739	0.662	0.731	0.754	0.666
SK-LU-1	0.287	0.267	0.364	0.396	0.327	0.616	0.64	0.631	0.461	0.837	0.844	0.553	0.325	0.394	0.324	0.296	0.182
LXF-289	0.899	0.97	0.966	0.958	0.736	0.362	0.411	0.399	0.358	0.8	0.841	0.88	0.849	0.809	0.678	0.721	0.938
NCI-H1993	0.596	0.502	0.551	0.567	0.585	0.58	0.593	0.617	0.585	0.919	0.804	0.874	0.95	0.559	0.537	0.638	0.573
LCLC-97TM1	0.713	0.483	0.357	0.527	0.56	0.262	0.264	0.246	0.221	–	0.501	0.357	0.147	0.484	0.459	0.584	0.49
NCI-H2347	0.505	0.431	0.409	0.389	0.369	0.637	0.595	0.65	0.621	0.72	0.778	0.772	0.699	0.515	0.414	0.473	0.298
LCLC-103H	0.499	0.322	0.459	0.464	0.486	0.71	0.722	0.73	0.721	1.07	0.99	1.06	1.07	0.458	0.441	0.428	0.417
